# Reference: PubChem BioAssay AID504737 (National Center for Advancing Translational Sciences (NCATS), 2011)
# Tested on: Caco-2 permeability, B->A Papp, LC-MS/MS
# Assay: Inhibitors of Bloom's syndrome helicase: Caco-2 Permeability Profiling Assay
# Details: active compounds read high
# Excerpt: Survival of cells and the faithful propagation of the genome depend on elaborate mechanisms of detecting and repairing DNA damage. Treatment of advanced cancer relies on radiation therapy or chemotherapy, which kill cancer cells by causing extensive DNA damage. It is often found, that cancer cells develop resistance to therapy through enhanced activity of DNA repair functions; this has led to an increased interest in developing drugs that interfere with DNA repair, which could sensitize cancer cells to conventional therapy. Bloom syndrome helicase (BLM), is important in resolving abnormal DNA structures formed during replication or homologous recombination. Shutting down the expression of BLM leads to chromosomal instability and higher radiation sensitivity in cultured cells. This permeability assay predicts the in vivo absorption of the lead across the intestinal lining by using a Caco-2 cell line and measuring the lead's […]. […] NIH Chemical Genomics Center [NCGC] NIH Molecular Libraries Probe Production Centers Network [MLPCN] MLSCN Grant: MH087284 PI Name: Dr. Opher Gileadi, Structural Genomics Consortium, University of Oxford, UK
# 1. […] The T0, LY and T90, LY plates are read by FlexStation 3 at excitation of 485 nm and emission of 535 nm to determine LY permeability. […]
smiles,measurement,value
O=C(Nc1ccc(F)c(C(F)(F)F)c1)Nc1nnc(-c2ccncc2)s1,permeability B->A Papp,1 10^-6 cm/s
